The target in the first experiment is T1, recombinant Axl tyrosine kinase (Homo sapiens, UniProt P30530).
T1 construct: encompassing amino acids 473 to 894 of Axl; GST (N); made in house; host or cells: SF126 insect cells
T1 sequence (P30530 473-894): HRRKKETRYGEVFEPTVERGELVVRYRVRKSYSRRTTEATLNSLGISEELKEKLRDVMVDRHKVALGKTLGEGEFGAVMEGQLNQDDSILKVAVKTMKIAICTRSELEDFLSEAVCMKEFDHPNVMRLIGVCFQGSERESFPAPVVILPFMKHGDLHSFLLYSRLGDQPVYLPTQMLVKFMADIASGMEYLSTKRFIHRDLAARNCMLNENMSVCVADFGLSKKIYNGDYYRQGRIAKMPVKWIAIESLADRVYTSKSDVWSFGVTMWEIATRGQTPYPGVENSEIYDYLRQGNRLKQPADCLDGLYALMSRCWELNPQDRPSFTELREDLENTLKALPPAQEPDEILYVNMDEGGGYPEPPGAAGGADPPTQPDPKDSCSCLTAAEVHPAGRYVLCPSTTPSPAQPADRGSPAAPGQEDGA
Briefly: In vitro Axl kinase assay (AlphaScreen), Test (a). The experiment is classed as biochemical. Conditions: test compound at 1 μM; first value quoted.
On to `CN1CCCC(Oc2ccc(-c3cnc(N)c(-c4nc5ncccc5o4)c3)cc2)C1` (centres unmarked) [Example 43B.9], for which the “% Axl tyrosine kinase inhibition at 1 μM concentration” value (shortened to “% Axl tyrosine kinase inhibition”) is 98.2%.
Still for that read-out and setting: with `COCCC(=O)N1CCC(n2cc(-c3cnc(N)c(-c4nc5ncccc5o4)c3)cn2)CC1` [Example 59.1] the figure was 99.3%.
Same read-out and setting: with `CCN(CC)CCOc1ccc(-c2cnc(N)c(-c3nc4ncccc4o3)c2)cc1OC` [Example 43C.4] the figure was 99.8%; with `COc1cc(-c2cnc(N)c(-c3nc4ncccc4o3)c2)ccc1OCCCN1CCOCC1` [Example 43C.17], 93.5%.
As to `Cc1c(-c2cnc(N)c(-c3nc4ccccc4o3)c2)cnn1C1CCN(C)CC1` [Example 41.18], the “% Axl tyrosine kinase inhibition” value is listed as 100.0%.
For the molecule `CN(C)CCCN(C)C(=O)c1ccc(-c2cnc(N)c(-c3nc4cccnc4o3)c2)cc1` [Example 45A.54], the “% Axl tyrosine kinase inhibition” value stood at 97.8%.
On the same count and under the same terms, with `Nc1ncc(-c2ccc(OCCC3CCNCC3)cc2)cc1-c1nc2ncccc2o1` [Example 43B.35] the figure was 95.9%; with `CN1CCN(CCCn2cc(-c3cnc(N)c(-c4nc5ccccc5o4)c3)cn2)CC1` [Example 31.5], 100.0%.
Still for that read-out and setting: with `Nc1ncc(-c2ccc(C(=O)N3CCC[C@H]3CN3CCCC3)cc2)cc1-c1nc2cccnc2o1` [Example 45A.66] the figure was 99.9%.
Same read-out and setting: with `NC(=O)CCN1CCN(C(=O)c2ccc(-c3cnc(N)c(-c4nc5cccnc5o4)c3)cc2)CC1` [Example 45A.71] the figure was 93.7%; with `NCCCOc1ccc(-c2cnc(N)c(-c3nc4ncccc4o3)c2)cc1` [Example 43B.31], 97.1%; with `COc1cc(-c2cnc(N)c(-c3nc4ncccc4o3)c2)ccc1OC1CCNC1` (centres unmarked) [Example 43C.23], 99.3%.
For `CN(CCN1CCCC1)C(=O)c1ccc(-c2cnc(N)c(-c3nc4cccnc4o3)c2)cc1` [Example 45A.70], the “% Axl tyrosine kinase inhibition” value came out at 98.8%.
On the same count and under the same terms, the value for `CN1CCOC(CNC(=O)c2ccc(-c3cnc(N)c(-c4nc5cccnc5o4)c3)cc2)C1` (centres unmarked) [Example 45A.28] was 97.5%; that for `Nc1ncc(-c2ccc(C(=O)N3CCCC3CN3CCCCCC3)cc2)cc1-c1nc2cccnc2o1` (centres unmarked) [Example 45A.17] was 99.6%.
Same read-out and setting: the value for `Nc1ncc(-c2ccc(S(=O)(=O)NCCO)cc2)cc1-c1nc2cccnc2o1` [Example 9A.14] was 97.0%; that for `COCCOCC(=O)N1CCC(n2cc(-c3cnc(N)c(-c4nc5ncccc5o4)c3)cn2)CC1` [Example 59.5] was 99.7%.
Same read-out and setting: the value for `N#CCc1ccc(-c2cnc(N)c(-c3nc4cccnc4o3)c2)cc1` [Example 9A.16] was 97.7%; that for `CN1CCCC(COc2ccc(-c3cnc(N)c(-c4nc5ncccc5o4)c3)cc2)C1` (centres unmarked) [Example 43B.12] was 98.8%; that for `CCN(CC)CCNC(=O)c1cccc(-c2cnc(N)c(-c3nc4cccnc4o3)c2)c1` [Example 9A.7] was 91.7%.
Consider `N#CCc1cccc(-c2cnc(N)c(-c3nc4ccccc4o3)c2)c1` [Example 2.47], for which the “% Axl tyrosine kinase inhibition” value is 98.0%.
On to `Nc1ncc(-c2cnn(CC3CNC3)c2)cc1-c1nc2ccccc2o1` [Example 29.4], for which the “% Axl tyrosine kinase inhibition” value turned out to be 99.1%.
Same read-out and setting: with `NCC[C@H]1CCCN(C(=O)c2ccc(-c3cnc(N)c(-c4nc5cccnc5o4)c3)cc2)C1` [Example 45A.92] the figure was 99.7%; with `Cc1ccc2nc(-c3cc(-c4cnn(C5CCN(C)CC5)c4)cnc3N)oc2c1` [Example 7.9], 99.7%.
On the same count and under the same terms, the value for `CS(=O)(=O)N1CCC(n2cc(-c3cnc(N)c(-c4nc5ncccc5o4)c3)cn2)CC1` [Example 55.1] was 99.0%; that for `Nc1ncc(-c2ccc(C(=O)NCCCN3CCOCC3)cc2)cc1-c1nc2cccnc2o1` [Example 45A.57] was 96.9%; that for `CCN1CCC(n2cc(-c3cnc(N)c(-c4nc5ccccc5o4)c3)cn2)CC1` [Example 4.1] was 100.0%.
On the same count and under the same terms, with `COCc1cccc(-c2cnc(N)c(-c3nc4ncccc4o3)c2)c1` [Example 10A.16] the figure was 99.9%; with `N#Cc1cccc(-c2cnc(N)c(-c3nc4cnccc4o3)c2)c1` [Example 8A.11], 89.6%.
Take `COCc1cccc(-c2cnc(N)c(-c3nc4ccccc4o3)n2)c1` [Example 20.17]: the “% Axl tyrosine kinase inhibition” value came out at 98.8%.
Still for that read-out and setting: with `Nc1ncc(-c2ccc(OCCOCCN3CCOCC3)cc2)cc1-c1nc2ncccc2o1` [Example 43B.22] the figure was 97.7%.
With `CN1CCC(n2cc(-c3cnc(N)c(-c4nc5ccc(Cl)cc5o4)c3)cn2)CC1` [Example 7.7], the “% Axl tyrosine kinase inhibition” value is 99.0%.
The same measure, in the same setting: with `CCS(=O)(=O)c1ccc(-c2cnc(N)c(-c3nc4ccccc4o3)c2)cc1` [Example 2.1] the figure was 93.7%; with `COc1nn(C2CCNCC2)cc1-c1cnc(N)c(-c2nc3ccccc3o2)c1` [Example 25.2], 100.0%.
On the same count and under the same terms, with `Nc1ncc(-c2cnn(C3CCNCC3)c2)cc1-c1nc2c(F)cccc2o1` [Example 38A.2] the figure was 100.0%; with `CN1CCC(n2cc(-c3cnc(N)c(-c4nc5ccccc5o4)c3)c(C(N)=O)n2)CC1` [Example 41.35], 99.8%.
The same measure, in the same setting: the value for `Nc1ncc(-c2ccc(C(=O)N3CCN(CCN4CCCC4)CC3)cc2)cc1-c1nc2cccnc2o1` [Example 45A.68] was 91.3%; that for `CN(C)CC(=O)N1CCC(n2cc(-c3cnc(N)c(-c4nc5cccnc5o4)c3)cn2)CC1` [Example 59.7] was 99.6%.
Turning to `CCN(CC)CCCOc1ccc(-c2cnc(N)c(-c3nc4ncccc4o3)c2)cc1` [Example 43B.20], the “% Axl tyrosine kinase inhibition” value worked out at 98.9%.
Consider `COc1cc(-c2cnc(N)c(-c3nc4ncccc4o3)c2)ccc1OCC1CCCNC1` (centres unmarked) [Example 43C.33], for which the “% Axl tyrosine kinase inhibition” value was found to be 99.8%.
The same measure, in the same setting: with `CCS(=O)(=O)c1cccc(-c2cnc(N)c(-c3nc4ccccc4o3)c2)c1` [Example 2.5] the figure was 73.5%; with `Nc1ncc(-c2ccc(C(=O)NCCO)cc2)cc1-c1nc2cccnc2o1` [Example 9A.2], 97.0%; with `Nc1ncc(-c2cnn(CC3CCNCC3)c2)cc1-c1nc2ccccc2o1` [Example 29.7], 99.8%.
On the same count and under the same terms, the value for `CN(C)CCCNC(=O)c1ccc(-c2cnc(N)c(-c3nc4cccnc4o3)c2)cc1` [Example 9A.11] was 98.8%; that for `Nc1ncc(-c2ccc(C(=O)NCCN3CCCCC3)cc2)cc1-c1nc2cccnc2o1` [Example 45A.56] was 98.9%.

Still in this experiment, the particulars now being: test compound at 1 μM; first value quoted; read-out: % Axl tyrosine kinase inhibition at 1 μM concentration.
As for `Nc1ncc(-c2cn(C3CCNCC3)nc2CO)cc1-c1nc2ccccc2o1` [Example 25.13, [4-[6-amino-5-(1,3-benzoxazol-2-yl)-3-pyridyl]-1-(4-piperidyl)pyrazol-3-yl]methanol], the inhibition at 1 µM turned out to be 100%.
The same measure, in the same setting: the value for `Nc1ncc(-c2cccc(N3CCNCC3)c2)cc1-c1nc2ccccc2o1` [Example 2.10, 3-(1,3-Benzoxazol-2-yl)-5-(3-piperazin-1-ylphenyl)pyridin-2-amine] was 99.5%; that for `Nc1ncc(-c2cnn(C3CCNCC3)c2)cc1-c1nc2ccncc2o1` [Example 11, 3-Oxazolo[5,4-c]pyridin-2-yl-5-[1-(4-piperidyl)pyrazol-4-yl]pyridin-2-amine] was 99%; that for `CNC(=O)[C@@H]1C[C@@H](n2cc(-c3cnc(N)c(-c4nc5ccccc5o4)c3)cn2)CN1C` [Example 39, (2S,4R)-4-[4-[6-amino-5-(1,3-benzoxazol-2-yl)-3-pyridyl]pyrazol-1-yl]-N,1-dimethyl-pyrrolidine-2-carboxamide] was 99.9%.
For the molecule `CN(C)CCNC(=O)c1ccc(-c2cnc(N)c(-c3nc4ncccc4o3)c2)cc1` [Example 10A.15, 4-(6-amino-5-oxazolo[4,5-b]pyridin-2-yl-3-pyridyl)-N-(2-dimethylaminoethyl)benzamide], the inhibition at 1 µM was 98.4%.
In the case of `Nc1ncc(-c2cnn(CCN3CCOCC3)c2)cc1-c1nc2ccccc2o1` [Example 26, 3-(1,3-benzoxazol-2-yl)-5-[1-(2-morpholinoethyl)pyrazol-4-yl]pyridin-2-amine], the inhibition at 1 µM came to 99.3%.
Same read-out and setting: the value for `COc1cc(-c2cnc(N)c(-c3nc4cccnc4o3)c2)ccc1OCCN1CCCC1` [Example 43C.1, 5-[3-methoxy-4-(2-pyrrolidin-1-ylethoxy)phenyl]-3-oxazolo[5,4-b]pyridin-2-yl-pyridin-2-amine] was 99.4%.
Still for that read-out and setting: the value for `COCC(=O)N1CCC(n2cc(-c3cnc(N)c(-c4nc5ccccc5o4)c3)cn2)CC1` [Example 33, 1-[4-[4-[6-amino-5-(1,3-benzoxazol-2-yl)-3-pyridyl]pyrazol-1-yl]-1-piperidyl]-2-methoxy-ethanone] was 99.9%.

The values are drawn from patent US8017611B2, “Pyridine and pyrazine derivatives -083” (AstraZeneca AB, priority 2007, dated 2011).
